Laboratory results as given in patent US20060252714A1, “Pharmaceutical compositions and methods for treating multidrug resistant cancer” (priority 2003, published 2006).
Structures can show the parent of a compound that is named as a salt. Where two headings read alike, the source gives them in different places.

How the values were obtained:
[1] = cited from earlier work; for Toxicity: at the toxic dose range of the same line
MCF-7/adr cells [2] = test: Breast cancer clonogenic assay, MCF-7/adr; assay type: cell-based, Human; conditions: for IC90: Homo sapiens, NCI/ADR-RES, absence of ketotifen, read-out: IC90 of cytotoxic drugs on MCF-7/adr, −ke
Protocol: MCF-7/adr cells were treated with different concentrations of reversal compounds with or without 2 μM doxorubicin for 24 hours. Cells were harvested, and plated for growth of breast cancer colonies in triplicates. […] DXN: doxorubicin.
FIG. 2 Influence of 10 μM of ketotifen on the toxicities of four cytotoxic drugs. MCF-7/adr cells were treated with different concentrations of chemotherapeutic agents in the presence or absence of 10 μM ketotifen for 24 hours. Cells were harvested, washed and plated for growth of breast cancer colonies as described in the Materials and Methods. […] Ke: ketotifen.
The toxicity of the cytotoxic drugs was measured by clonogenicity assay.
(§1) MCF-7/mx and MCF-7/vp cell lines were also used. Other cell lines could also be used. […] The MCF-7/vp cell line was selected with etoposide and overexpresses Multidrug Resistance-associated Protein gene (MRP). All the cell lines were grown routinely as monolayer culture in Dulbecco's Minimal Essential Media (DME) supplemented with L-glutamine (2 mM), penicillin, streptomycin and 10% heat-inactivated fetal bovine serum SUBS, GIBCO) in an atmosphere of 5% CO2 at 37° C. The cell lines were passaged weekly.
(§2) Both adherent and non-adherent cells were collected and washed with fresh medium. Cell aliquots (5×10^3) were plated in 1 ml of 0.3% agar over 1 ml of 0.5% agar underlayer prepared in IMDM containing 10% horse serum (GIBCO). The upper layer consisted of 20% FBS, 10 μg/ml of bovine insulin, 2.5 mg/ml of hydrocortisone, 5×10^−7M of 17-b-estradiol (Sigma) and 50 ng/ml of EGF (R & D Systems).

MCF-7/wt = test: Breast cancer clonogenic assay, MCF-7/wt; assay type: cell-based; conditions: Homo sapiens, MCF7, 24 hours treatment, clonogenicity, read-out: IC90 of cytotoxic drugs on MCF-7/wt
Protocol: (§3) The toxicity of the cytotoxic drugs was measured by clonogenicity assay. […] Beginning at 1 μM, ketotifen restored doxorubicin toxicity while at 10 μM, the MDR phenotype of MCF-7/adr cells was completely reversed. Over this concentration range, ketotifen itself is non-toxic to MCP-7/adr cells. […] As summarized in Table 3, IC90 levels on MCF-7/adr cells in the presence of ketotifen are almost identical to those for parental MCF-7 cells. […] Thus, ketotifen is a specific reversing agent for MDR associated with P-gp.
as §1, with “MCF-7 (MCF-7/wt) and its multidrug resistant variant MCF-7/adr cells were used. MCF-7/mx” for “MCF-7/mx”
as §2, with “Exponentially growing MCF-7/wt and its three mutants MCF-7/adr, MCF-7/mx and MCF-7/vp were trypsinized, washed with fresh medium and plated in 6-well plates at a density of 1×10^5/ml. […] Both” for “Both”, “Systems). Colonies larger than 50 μm in size were scored after 14 days of incubation at 37° C. in a humidified atmosphere of 5% CO2 in air.” for “Systems).”

[3] = Modulation of doxorubicin toxicity: survival; conditions: doxorubicin 15 mg/kg i.p., alone or after labelled reversal agent 25 mg/kg i.p.
From the text: Female Balb/c mice (8-10 weeks of age, 20-22 g of body weight) were purchased from Jackson Laboratory (Maine, USA). Protocols were approved by the Animal Care Committee of the University Health Network. […] All the treatments were administrated via i.p. After treatment, mice were kept in sterile environment for six to eight weeks. […] Three mice from each group were sacrificed on day 4-post treatment. Hearts were removed immediately and fixed in 10% neutral buffered formalin. Tissue sections were made from heart tissue and stained with hematoxylin and eosin or with 1% Toluidine blue to identify mast cells. All the slides were evaluated by light microscopy for cardiac damage, mast cell density and degranulation.
All the colony data were analyzed by two-way analysis of variance (ANOVA), with differences between individual means determined by Bonferroni's post-tests. Data were expressed as means ±SEM. The Kaplan-Meier estimate was used to determine differences in the survival periods for mice following different drug combination treatments.

MCF-7/adr cells [4] = test: Breast cancer clonogenic assay, MCF-7/adr; assay type: cell-based; conditions: Homo sapiens, NCI/ADR-RES, presence of 10 mM of ketotifen (so in the source), read-out: IC90 of cytotoxic drugs on MCF-7/adr, +ke
MCF-7/mx = test: Breast cancer clonogenic assay, MCF-7/mx (BCRP overexpressing); assay type: cell-based, Human
Protocol: (§4) FIG. 3 Ketotifen fails to reverse MDR of MCF-7/mx and MCF-7/vp cell lines. MCF-7/mx and MCF-7/vp cell lines were treated and assayed as described in FIGS. 1 and 2. […] Ke: ketotifen.
as §3
(§5) MCF-7 (MCF-7/wt) and its multidrug resistant variant MCF-7/adr cells were used. MCF-7/mx and MCF-7/vp cell lines were also used. Other cell lines could also be used. […] The MCF-7/vp cell line was selected with etoposide and overexpresses Multidrug Resistance-associated Protein gene (MRP). […]
(§6) Exponentially growing MCF-7/wt and its three mutants MCF-7/adr, MCF-7/mx and MCF-7/vp were trypsinized, washed with fresh medium and plated in 6-well plates at a density of 1×10^5/ml. […] Colonies larger than 50 μm in size were scored after 14 days of incubation at 37° C. in a humidified atmosphere of 5% CO2 in air.

MCF-7/vp cells = test: Breast cancer clonogenic assay, MCF-7/vp (MRP overexpressing); assay type: cell-based, Human
Protocol: as §4, §3, §5, §6

[5] = tested on: P388/adr murine leukemia cells; test: p388 multi-drug resistant leukemia model; assay type: in vivo, Mice; conditions: ketotifen 75 mg/kg i.p. 30 minutes before doxorubicin 4 mg/kg i.p., once per week
P-gp = P-gp (Homo sapiens, UniProt P08183); conditions: 2.5 h, 2 μM
P-gp, sequence (P08183 whole entry): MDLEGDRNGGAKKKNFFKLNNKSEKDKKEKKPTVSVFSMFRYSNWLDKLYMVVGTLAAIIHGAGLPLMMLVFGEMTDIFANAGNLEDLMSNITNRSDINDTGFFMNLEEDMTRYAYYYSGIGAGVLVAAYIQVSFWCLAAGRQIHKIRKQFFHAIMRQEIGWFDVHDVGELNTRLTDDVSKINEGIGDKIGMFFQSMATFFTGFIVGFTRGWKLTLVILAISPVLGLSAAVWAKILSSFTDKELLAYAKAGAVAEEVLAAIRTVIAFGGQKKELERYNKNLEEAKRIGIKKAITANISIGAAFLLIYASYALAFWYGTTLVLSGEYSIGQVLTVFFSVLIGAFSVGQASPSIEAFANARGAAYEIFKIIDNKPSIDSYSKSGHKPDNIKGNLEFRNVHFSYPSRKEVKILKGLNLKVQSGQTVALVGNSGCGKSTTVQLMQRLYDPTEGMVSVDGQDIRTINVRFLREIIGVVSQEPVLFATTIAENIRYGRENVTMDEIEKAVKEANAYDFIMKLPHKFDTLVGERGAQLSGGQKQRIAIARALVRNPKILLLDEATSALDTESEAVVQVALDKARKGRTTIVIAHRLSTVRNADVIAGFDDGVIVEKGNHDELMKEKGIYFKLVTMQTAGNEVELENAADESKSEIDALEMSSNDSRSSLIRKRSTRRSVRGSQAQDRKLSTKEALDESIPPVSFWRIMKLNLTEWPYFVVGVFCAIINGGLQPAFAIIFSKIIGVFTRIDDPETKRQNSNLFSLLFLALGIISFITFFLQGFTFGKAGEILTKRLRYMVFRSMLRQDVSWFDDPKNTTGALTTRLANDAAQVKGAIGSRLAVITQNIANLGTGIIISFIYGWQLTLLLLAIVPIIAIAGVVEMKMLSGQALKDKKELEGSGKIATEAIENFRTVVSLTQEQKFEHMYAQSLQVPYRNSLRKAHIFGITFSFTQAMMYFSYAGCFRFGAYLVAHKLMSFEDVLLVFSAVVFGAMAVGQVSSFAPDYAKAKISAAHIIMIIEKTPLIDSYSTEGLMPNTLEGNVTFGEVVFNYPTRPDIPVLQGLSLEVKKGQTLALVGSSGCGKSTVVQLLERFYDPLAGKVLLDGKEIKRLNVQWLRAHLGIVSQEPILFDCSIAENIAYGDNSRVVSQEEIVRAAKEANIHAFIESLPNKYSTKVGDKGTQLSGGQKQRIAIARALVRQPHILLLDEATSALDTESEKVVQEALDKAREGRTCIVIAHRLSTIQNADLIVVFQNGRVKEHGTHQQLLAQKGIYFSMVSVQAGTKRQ

[6] = with 2 μM doxorubicin, 24 hours

For COc1cc(NS(C)(=O)=O)ccc1Nc1c2ccccc2nc2ccccc12 [Amsacrine], the Toxicity [1] is listed as “Ventricular arrhythmia”.
For CS(=O)(=O)OCCCCOS(C)(=O)=O [Bisulfan], the “Toxic dose range” value ([1]; IV unless otherwise indicated) is listed as “Oral daily dose” and the Toxicity [1] is listed as “Endocardial fibrosis”.
In the case of O=P1(N(CCCl)CCCl)NCCCO1 (centres unmarked) [Cyclophosphamide], the Toxic dose range ([1]; over 2 d, IV) is given as greater than 100 to 120 mg/kg.
In the case of COc1cccc2c1C(=O)c1c(O)c3c(c(O)c1C2=O)C[C@@](O)(C(C)=O)C[C@@H]3O[C@H]1C[C@H](N)[C@H](O)[C@H](C)O1 [Daunorubicin], the Toxicity [1] is listed as “Same toxocity as doxorubicin” and the Toxic dose range ([1]; total dose, IV) is listed as greater than 550 mg/m^2.
With COc1cccc2c1C(=O)c1c(O)c3c(c(O)c1C2=O)C[C@@](O)(C(=O)CO)C[C@@H]3O[C@H]1C[C@H](N)[C@H](O)[C@H](C)O1 [Doxorubicin, 8S,10S)-10-[(3-amino-2,3,6-trideoxy-a-L-lyxo-hexopyranosyl)oxy]-8-glycolyl-7,8,9,10-tetrahydro-6,8,11-trihydroxy-1-methoxy-5,12-naphthacenedione hydrochloride] the IC90 (MCF-7/adr cells [2]) was greater than 10 µM, the IC90 (MCF-7/wt) was 0.12 µM and the median survival time [3] was 19.3 days. The “survival rate at day 30” value [3] was 42% and the IC90 (MCF-7/adr cells [4]) was 0.18 µM.
In the case of O=c1[nH]cc(F)c(=O)[nH]1 [Fluorouracil], the Toxicity [1] is given as “Angina/myocardial infarction”.
For CO[C@@]12[C@H](COC(N)=O)C3=C(C(=O)C(C)=C(N)C3=O)N1C[C@@H]1N[C@@H]12 [Mitomycin], the “Toxic dose range” value ([1]; IV unless otherwise indicated) is given as “Conventional dose”.
In the case of O=C1c2c(O)ccc(O)c2C(=O)c2c(NCCNCCO)ccc(NCCNCCO)c21 [Mitoxantrone], the IC90 (MCF-7/adr cells [2]) is reported as 0.22 µM, the IC90 (MCF-7/wt) is reported as 0.01 µM and the IC90 (MCF-7/adr cells [4]) is reported as 0.02 µM.
In the case of CC(=O)O[C@H]1C(=O)[C@@]2(C)[C@H]([C@H](OC(=O)c3ccccc3)[C@]3(O)C[C@H](OC(=O)[C@H](O)[C@@H](NC(=O)c4ccccc4)c4ccccc4)C(C)=C1C3(C)C)[C@]1(OC(C)=O)CO[C@@H]1C[C@@H]2O [Paclitaxel], the Toxicity [1] is given as “Bradycardia”.
In the case of COc1cc([C@@H]2c3cc4c(cc3[C@@H](O[C@@H]3O[C@@H]5CO[C@@H](C)O[C@H]5[C@H](O)[C@H]3O)[C@H]3COC(=O)[C@H]23)OCO4)cc(OC)c1O [VP-16, etoposide], the IC90 (MCF-7/adr cells [2]) is reported as 220 µM, the IC90 (MCF-7/wt) is reported as 17 µM and the IC90 (MCF-7/adr cells [4]) is reported as 20 µM.
Molecule CC[C@]1(O)C[C@@H]2CN(CCc3c([nH]c4ccccc34)[C@@](C(=O)OC)(c3cc4c(cc3OC)N(C)[C@H]3[C@@](O)(C(=O)OC)[C@H](OC(C)=O)[C@]5(CC)C=CCN6CC[C@]43[C@@H]65)C2)C1 [Vinblastine] has an IC90 (MCF-7/adr cells [2]) of 410 µM, an IC90 (MCF-7/wt) of 0.8 µM and an IC90 (MCF-7/adr cells [4]) of 1.2 µM.
In the case of CC[C@]1(O)C[C@H]2CN(CCc3c([nH]c4ccccc34)[C@@](C(=O)OC)(c3cc4c(cc3OC)N(C=O)[C@H]3[C@@](O)(C(=O)OC)[C@H](OC(C)=O)[C@]5(CC)C=CCN6CC[C@]43[C@@H]65)C2)C1 [Vincristine], the “Toxic dose range” value ([1]; IV unless otherwise indicated) is given as “Conventional dose” and the Toxicity [1] is given as “Myocardial Infarction”.
For CN1CCC(=C2c3ccccc3CC(=O)c3sccc32)CC1.O=C(O)/C=C/C(=O)O [ketotifen, 4-(1-Methyl-4-piperidylidene)-4H-benzo[4,5]cyclohepta[1,2-b] thiophen-10(9H)-one hydrogen fumarate], the “sensitivity to mitoxantrone, VP-16 and vinblastine” value (MCF-7/adr cells [2]; 10 μM ketotifen) was “restored”, the “reversal of doxorubicin resistance” value (MCF-7/adr cells [2]; ketotifen compared with verapamil) was “reverse resistance at similar concentrations” and the “toxicity of ketotifen itself” value (MCF-7/adr cells [2]; over 1 to 10 μM, without doxorubicin) was “non-toxic”. For the same molecule, the “ketotifen concentration at which MDR phenotype was completely reversed” value (MCF-7/adr cells [2]; [6]) was 10 µM, the “ketotifen concentration from which doxorubicin toxicity is restored” value (MCF-7/adr cells [2]; [6]) was no less than 1 µM and the “influence on toxicity of mitoxantrone” value (MCF-7/mx) was “influenced neither”. For the same molecule, the “influence on toxicity of VP-16” value (MCF-7/vp cells) was “influenced neither”, the median survival time [3] was 23.2 days and the “survival rate at day 30” value [3] was 57%. The “extension of survival compared to doxorubicin alone” value [5] was 2 days and the “increase of doxorubicin relative fluorescence” value (P-gp) was 50%.
With COc1ccc(CCN(C)CCCC(C#N)(c2ccc(OC)c(OC)c2)C(C)C)cc1OC (centres unmarked) [verapamil] the median survival time [3] was 12.3 days and the “survival rate at day 30” value [3] was 0%.
